Source: US20190000983A1, “AN EYE DROP SOLUTION FOR ENHANCED HYALURONIC ACID RETENTION AND DELIVERY” (THE JOHNS HOPKINS UNIVERSITY, priority 2015, published 2019)
Like-named read-outs stand apart in the source and are kept apart here. Ends that are not written are not given here.

How the values were obtained:
[1] = tested on: rabbit conjunctiva tissue sections (sialic acid on mucin-1; collagen type I); conditions: for localisation of peptide staining on conjunctiva sections: biotin-conjugated peptide 1.0 mg/ml, compared with anti-mucin-1 / anti-collagen type I antibody
Procedure: To visualize binding of SABpep and ColBpep to the ocular surface, we performed immunohistochemistry with biotin-conjugated peptides on tissue section of rabbit conjunctiva. Conjunctival tissue dissected from rabbit eyes were fixed with 4% paraformaldehyde (PFA) solution (Electron Microscopy Sciences, Hatfield, Pa.), embedded and sectioned (thickness-5 μm) in paraffin. The sections were first incubated with biotin-conjugated peptides (1.0 mg/ml in PBS pH 7.4) for 1 h at room temperature, washed thrice with PBS and then stained with streptavidin-Texas Red conjugate (Vector Laboratories, CA) in accordance to manufacturer's protocol. The samples were then washed again three times, mounted with DAPI mounting medium (Vector Laboratories) and imaged with Zeiss Axio Imager 2 microscope (Carl Zeiss, Jena, Germany). Sections stained with only secondary antibody served as negative control. Mouse anti-mucin-1 primary antibody (Novus Biologicals, Littleton, Colo.) and mouse anti-collagen type I antibody (Abcam, Cambridge, Mass.) were used as replacements to SABpep and ColBpep in the positive controls, respectively, and stained with goat anti-mouse IgG secondary antibody (Life Technologies, NY).
To examine if SABpep binds specifically to sialic acid segment on the oligosaccharide chains, paraffin embedded and 4% PFA fixed rabbit conjunctiva tissue sections were stained with three different groups were selected (SABpep, sialidase treated+SABpep, SA+SABpep). Sections in the first group were stained with SABpep as described in the main text; sections in the second group were treated with sialidase (α2-3,6,8 Neuraminidase, 60 U/ml; New England Biolabs, Ipswich, Mass.) first for one hour at 37° C. before the addition of SABpep; and finally, sections in the third group were stained with SABpep pre-incubated with sialic acid (N-Acetylneuraminic acid, 100 mM; Carbosynth, Compton, Berkshire, UK) for one hour at room temperature. The staining procedure was the same in all three groups (streptavidin-fluorescein was used for detecting biotin conjugated SABpep; DAPI was used as counterstain for nuclei). The sections were imaged using Zeiss Axio Imager 2 microscope.

[2] = tested on: Rabbit conjunctival primary epithelial cells; assay: Live/dead staining and AlamarBlue cytotoxicity assessment; assay type: cell-based; conditions: 1.0 mg/ml, 24 h; data not shown
Procedure: Rabbit conjunctival primary epithelial cells were isolated as described previously in the main text. Cells were seeded in 96 well microplates for AlamarBlue assays (Life Technologies, NY) and live/dead staining at a density of 10,000 cells/cm^2. Cells were allowed to grow to about 90% confluence before experiments were carried out. Three different concentrations of HA-FL were tested: 1.0 mg/ml, 100 μg/ml and 10 μg/ml. SABpep and ColBpep were added to the medium for 24 h with a concentration of 1.0 mg/ml. Calcein AM and ethidium homodimer-1 (EthD-1; Life Technologies, NY) were used as live/dead staining agents according manufacture's manual, and cells were imaged using Zeiss Axio Imager 2 microscope. AlamarBlue assay was performed with quadruplets for every group. After 2 h incubation, the absorbance values at 570 nm on a Synergy 2 microplate reader were recorded.

conjunctiva tissue = assay: HABA assay: screening of biotin-conjugated ocular surface-binding peptides on conjunctival tissue; set-up: species or system rabbit; conditions: six peptides of Table 1, biotin-conjugated, 1.0 mg/mL in PBS, 20 min, compared to control
Excerpt: Conjunctival tissue from the ocular surface was targeted to test the binding affinity of the multiple peptides. Conjunctiva was harvested from rabbit eyes (Pel-Freez Biologicals, Rogers, Ariz.) with the underlying tenon's capsule removed, and then cut into 6 mm pieces with a biopsy punch. The conjunctival epithelium was kept intact for testing SABpep, while the epithelium was scrapped off with a cell scraper for testing type I collagen-binding peptide (ColBpep). The tissue pieces were merged in the biotin-conjugated peptide solutions (1.0 mg/mL in PBS, pH 7.4; Life Technologies, NY) for 20 minutes and then washed three times with PBS to remove any unbound peptides. A HABA (4′-hydroxyazobenzene-2-carboxylic acid) assay (Life Technologies, NY) was used to measure the amount of bound peptide (biotin), per manufacturer's instructions. An aqueous solution of biotin (1.0 mg/mL) without peptides was used as a negative control.

Sequence	localisation of peptide staining on conjunctiva sections ([1]; 1 h, listed as SABpep-biotin)	staining of epithelium after preincubation of peptide with sialic acid ([1]; sialic acid 100 mM, 1 h, room temperature)	binding to conjunctival epithelium after sialidase digestion of the section ([1]; sialidase 60 U/ml, 1 h at 37° C. before staining)	cytotoxicity to epithelial cells [2]	amount of peptide bound to conjunctiva tissue (normalized to the dry weight) (conjunctiva tissue)	amount of peptide bound to conjunctiva tissue (normalized to the dry weight) (conjunctiva tissue; listed as peptide 3)	localisation of peptide staining on conjunctiva sections ([1]; 1 h, listed as ColBpep-biotin)	amount of peptide bound to conjunctiva tissue (normalized to the dry weight) (conjunctiva tissue; listed as peptide 6)
GGSPYGRC (also: biotin, position not given here) [SABpep]	binds selectively to epithelial lining of conjunctiva	still stained the epithelium	could not bind to conjunctival epithelium	little to no cytotoxicity	the most promising candidates	bound the most		
SYIRIADTNIT [ColBpep]				little to no cytotoxicity	the most promising candidates		binds to any collagen I on the tissue	bound the most
